For orientation: MRT means a mean duration of stay, worked out from the concentration-time curve. In general, half-life refers to how long it takes for the measured level to halve. Low readings indicate rapid decline, high ones slow decline.

The values below come from patent US20160002267A1, “BENZYL-SUBSTITUTED PYRAZOLOPYRIDINES AND USE THEREOF” (BAYER PHARMA AKTIENGESELLSCHAFT, priority 2013, published 2016).

Data set [1] in a line: Determination of pharmacokinetic parameters following intravenous and oral administration. Particulars: rats, intravenous administration of 0.3 mg/kg and peroral administration of 1 mg/kg. The data set is classed as in vivo, rat. On the procedure:
The pharmacokinetic parameters of the compounds of the formula (I) according to the invention are determined in male CD-1 mice, male Wistar rats and female beagles. Intravenous administration is via a formulation of species-specific plasma/DMSO in the case of mice and rats and via a water/PEG400/ethanol formulation in the case of dogs. For all species, oral administration of the dissolved substance via gavage is carried out based on a water/PEG400/ethanol formulation. The removal of blood from rats is simplified by inserting a silicone catheter into the right Vena jugularis externa prior to substance administration. The surgical intervention takes place at least one day prior to the experiment with isofluran anesthesia and administration of an analgetic (atropine/rimadyl (3/1) 0.1 ml s.c.). The removal of blood (generally more than 10 times) takes place in a time window which contains terminal times of at least 24 to a maximum of 72 hours after administration of the substance. The blood is removed into heparinized tubes. The blood plasma is then obtained by centrifugation; if required, it can be stored at −20° C. until further processing.
An internal standard (this can also be a chemically unrelated substance) is added to the samples of the compounds of the formula (I) according to the invention, calibration samples and qualifiers, and the protein is precipitated using excess acetonitrile. After addition of a buffer solution, which is adapted to the LC conditions, and subsequent vortexing, the mixture is centrifuged at 1000 g. The supernatant is examined by LC-MS/MS using C18-reversed-phase columns and variable mobile phase mixtures. The substances are quantified by peak heights or areas using extracted ion chromatograms of specific selected ion monitoring experiments.
The plasma concentration/time plots determined are used to calculate the pharmacokinetic parameters such as AUC (Area Under the Curve), Cmax, t1/2 (terminal half life), F (bioavailability), MRT (mean residence time) and CL (clearance), using a validated pharmacokinetic calculation program.
Since the substance quantification is performed in plasma, it is necessary to determine the blood/plasma distribution of the substance in order to be able to adjust the pharmacokinetic parameters correspondingly. For this purpose, a defined amount of substance is incubated in heparinized whole blood of the species in question in a rocking roller mixer for 20 min. After centrifugation at 1000 g, the plasma concentration is measured (by means of LC-MS/MS; see above) and determined by calculating the quotient of the Cblood/Cplasma values.

The target in a further data set is T1, guanylate cyclase (Rattus norvegicus, UniProt P19686+P20595).
T1 construct: expressed in transfected cells; host or cells: recombinant reporter cell line
T1 sequence (P20595 1-619): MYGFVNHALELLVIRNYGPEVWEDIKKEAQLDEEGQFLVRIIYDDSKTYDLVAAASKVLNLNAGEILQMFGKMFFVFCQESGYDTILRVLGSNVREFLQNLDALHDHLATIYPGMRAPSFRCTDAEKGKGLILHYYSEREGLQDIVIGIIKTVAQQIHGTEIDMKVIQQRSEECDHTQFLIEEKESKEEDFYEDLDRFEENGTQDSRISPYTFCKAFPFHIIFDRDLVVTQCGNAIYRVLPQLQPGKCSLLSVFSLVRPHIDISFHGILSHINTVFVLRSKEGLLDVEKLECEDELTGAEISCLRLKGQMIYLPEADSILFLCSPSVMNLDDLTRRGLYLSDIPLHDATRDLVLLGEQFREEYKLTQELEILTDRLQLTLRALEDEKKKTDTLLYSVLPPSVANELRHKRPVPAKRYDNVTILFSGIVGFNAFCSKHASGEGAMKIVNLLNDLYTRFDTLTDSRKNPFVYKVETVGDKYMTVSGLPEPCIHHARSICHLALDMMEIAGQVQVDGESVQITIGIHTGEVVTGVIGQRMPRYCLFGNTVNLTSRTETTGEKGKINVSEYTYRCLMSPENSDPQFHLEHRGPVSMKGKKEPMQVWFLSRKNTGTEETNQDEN
T1 sequence (P19686 1-690): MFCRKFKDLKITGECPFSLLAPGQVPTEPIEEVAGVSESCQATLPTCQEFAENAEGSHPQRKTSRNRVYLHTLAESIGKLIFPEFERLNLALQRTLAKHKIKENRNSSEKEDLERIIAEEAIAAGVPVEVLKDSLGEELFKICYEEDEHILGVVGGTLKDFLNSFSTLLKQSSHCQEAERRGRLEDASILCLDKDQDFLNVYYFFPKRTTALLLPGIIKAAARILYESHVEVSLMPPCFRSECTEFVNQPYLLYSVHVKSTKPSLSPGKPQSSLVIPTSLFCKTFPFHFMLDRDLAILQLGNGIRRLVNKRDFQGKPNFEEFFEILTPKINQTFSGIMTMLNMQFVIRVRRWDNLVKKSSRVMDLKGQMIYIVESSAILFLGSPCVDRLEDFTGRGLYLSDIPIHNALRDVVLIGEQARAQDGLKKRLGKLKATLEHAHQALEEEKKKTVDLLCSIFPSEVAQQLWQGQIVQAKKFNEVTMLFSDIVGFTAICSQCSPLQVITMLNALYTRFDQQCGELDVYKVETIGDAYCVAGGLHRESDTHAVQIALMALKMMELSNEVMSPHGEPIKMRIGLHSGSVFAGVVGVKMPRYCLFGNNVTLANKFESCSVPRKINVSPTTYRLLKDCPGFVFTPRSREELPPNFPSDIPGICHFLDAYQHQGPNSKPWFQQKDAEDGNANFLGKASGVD
The data set is described as follows: Effect on a recombinant guanylate cyclase reporter cell line. The data set is classed as cell-based. On the procedure:
The cellular activity of the compounds according to the invention is determined using a recombinant guanylate cyclase reporter cell line, as described in F. Wunder et al., Anal. Biochem. 339, 104-112 (2005).

In data set [1] (male, Wistar, rat, plasma), `CC1(C(F)(F)F)C(=O)Nc2nc(-c3nn(Cc4ccccc4F)c4ncc(F)cc34)nc(NCCC(F)(F)F)c21` (single isomer, unassigned) [Example 1-1, 2-[5-Fluoro-1-(2-fluorobenzyl)-1H-pyrazolo[3,4-b]pyridin-3-yl]-5-methyl-5-(trifluoromethyl)-4-[(3,3,3-trifluoropropyl)amino]-5,7-dihydro-6H-pyrrolo[2,3-d]pyrimidin-6-one] showed a mean residence time (MRT) of 6.4 h and a half-life of 7.8 h. In data set [1], this molecule showed an AUCnorm of 0.83 kg·h/L, a CLblood of 23.7 mL/min/kg and an F of 39.0%. The “MEC (minimum effective concentration)” value at guanylate cyclase was 0.1 µM.
